Results reported in paper PMC9599613 (Biomolecules, 2022).

Columns and labels:
[1] = ABTS free radical scavenging assay
Protocol: The antioxidant potentials of isolated phytosteroids 1 and 2 were also determined using the ABTS (2,2′-azino-bis(3-ethylbenzothiazoline-6-sulfonic acid)) standard method. […] This created free radicals within the sample. Afterward, the addition of 50% methanol and the ABTS radical cation solution were adjusted to pH 7.4 by dilution with the phosphate buffer (pH 7.4). […] The positive control was ascorbic acid, and the assay was repeated in triplicate. The percent radical scavenging potential of the test compounds was calculated using the standard reported formula.

[2] = DPPH free radical scavenging assay
Protocol: The antioxidant potentials of isolated compounds (phytosteroids 1 and 2) were determined following the DPPH standard assay. Initially, DPPH (24 mg) was dissolved in methanol (100 mL). Stock solutions of the test compounds were prepared in different dilutions (62.50–1000 μg/mL). From each dilution, 1 mL was mixed with 1 mL of the DPPH solution. The solution mixtures were incubated at room temperature for 0.5 h. Afterward, absorbance was recorded at 517 nm with a UV-visible spectrophotometer. Ascorbic acid was the standard drug, whereas the DPPH solution without the compound was negative control. The percent radical scavenging potential of the test compounds was calculated using the following formula: % DPPH activity=X−X1/X×100 where X = absorbance of the control, and X1 = absorbance of the test compound.

[3] = 1000 μg/mL, listed as compound 2

CCC(CCC(C)C1CCC2C3CCC4=CC(=O)CCC4(C)C3CCC12C)C(C)C (centres unmarked) [Compound 2, 17-(5-ethyl-6-methylheptan-2-yl)-10,13-dimethyl-1,2,6,7,8,9,10,11,12,13,14,15,16,17-tetradecahydro-3H-cyclopenta[a]phenanthren-3-one]
ABTS IC50 [1]: 185.83 µg/mL
Percent ABTS Activity (mean ± SEM) ([1]; 62.5 μg/mL): 41.34 ± 1.01 %
Percent ABTS Activity (mean ± SEM) ([1]; 125 μg/mL): 46.73 ± 0.78 %
Percent ABTS Activity (mean ± SEM) ([1]; 250 μg/mL): 51.37 ± 1.65 %
Percent ABTS Activity (mean ± SEM) ([1]; 500 μg/mL): 57.85 ± 0.97 %
Percent ABTS Activity (mean ± SEM) ([1]; 1000 μg/mL): 65.17 ± 0.72 %
Percent ABTS Activity (mean ± SEM) [1, 3]: 65.17 ± 0.72%
DPPH IC50 [2]: 218.83 µg/mL
Percent DPPH Activity (mean ± SEM) ([2]; 62.5 μg/mL): 33.00 ± 1.15 %
Percent DPPH Activity (mean ± SEM) ([2]; 125 μg/mL): 42.67 ± 0.89 %
Percent DPPH Activity (mean ± SEM) ([2]; 250 μg/mL): 49.00 ± 0.58 %
Percent DPPH Activity (mean ± SEM) ([2]; 500 μg/mL): 63.03 ± 0.23 %
Percent DPPH Activity (mean ± SEM) ([2]; 1000 μg/mL): 71.33 ± 0.49 %
Percent DPPH Activity (mean ± SEM) [2, 3]: 71.33 ± 0.49%
